For three compounds, activity coefficient results are on record in the NIST ThermoML archive (doi:10.1016/j.fluid.2018.09.024).

This data set is described as follows: activity coefficient (dimensionless); of the first substance listed, at infinite dilution; xn = mol fraction of the nth substance listed. The conditions noted are these: 101.33 kPa, Liquid, Chromatography, x1 = 0.

Numbers after ± are expanded uncertainties.

Regarding `COC(C)=O` [methyl ethanoate] + CCCCCCCCCCCC[N+](C)(C)CCOc1ccccc1.O=S(=O)([N-]S(=O)(=O)C(F)(F)F)C(F)(F)F, the activity coefficient came out at 0.474 ± 0.037 (318.15 K); 0.503 ± 0.038 (328.15 K); 0.534 ± 0.039 (338.15 K); 0.563 ± 0.04 (348.15 K); 0.595 ± 0.042 (358.15 K); 0.628 ± 0.043 (368.15 K).
Take `C1=CCCCC1` [cyclohexene] + CCCCCCCCCCCC[N+](C)(C)CCOc1ccccc1.O=S(=O)([N-]S(=O)(=O)C(F)(F)F)C(F)(F)F: the activity coefficient is, setting by setting: (318.15 K) 1.47 ± 0.1; (328.15 K) 1.52 ± 0.1; (338.15 K) 1.56 ± 0.1; (348.15 K) 1.61 ± 0.11; (358.15 K) 1.65 ± 0.11; (368.15 K) 1.69 ± 0.11.
With `CO` [methanol] + CCCCCCCCCCCC[N+](C)(C)CCOc1ccccc1.N#C[N-]C#N, the activity coefficient came to 0.316 ± 0.031 (328.15 K); 0.324 ± 0.032 (338.15 K); 0.332 ± 0.032 (348.15 K); 0.339 ± 0.032 (358.15 K); 0.346 ± 0.032 (368.15 K); 0.353 ± 0.032 (378.15 K).
